Assay results published in patent publication US9446061B2, “Composition containing antibiotics and lysophosphatidylcholine for boosting immunity or treatment of bacterial infections” (priority 2011, dated 2016).

Key:
CPA-CLP mice = test: Mortality of CPA-CLP mice, LPC and DW286AA alone or combined (Example 9); s.c. 4 times 12-hr intervals from 6 hrs after CLP; format: in vivo, ICR mice; settings: for Survival rate: LPC 1, DW286 0.5, Mix 0.75 mg/kg; for survival rates (survivors/total in brackets), Table 13: mg/kg: LPC 1, LPC + DW286 0.5 + 0.25, DW286/LPC 0.5/1.0, LPC/DW286 1.0/0.5, DW286 0.5
Source text: CPA is well known as an immunosuppressive agent. […] Then, the abdomen was closed following the general procedure.

[1] = system: CPA-induced immunosuppressive mice; test: Histopathology/histomorphometry of thymus and spleen in CPA-treated mice; format: in vivo, ICR mice; settings: LPC 1, DW286 0.5, Mix 0.75 mg/kg
Procedure: After measuring of organ weight, thymus and spleen was sampled. Sampled organs were fixed in 10% neutral buffered formalin. After paraffin embedding, 3-4 μm sections were prepared. Representative sections were stained with Hematoxylin and Eosin (H&E) for light microscopical examination. After that the histological profiles of individual organs were observed.
The numbers of white pulps in spleen were calculated as N/histological sections (×50) using automated image analysis (analySIS Image Processing; SIS, Germany). In addition, the numbers of atrophic changes on thymic cortex/total observed number of thymus were also calculated.

[2] = system: splenic CD3+, CD4+, CD8+ and TNF-α+ cells; test: Immunohistochemistry of spleen in CPA-treated mice; format: in vivo, ICR mice
Procedure: (§1) After deparraffinized, CD3 epitope retrievals were conducted in 10 mM Tris-1 mM EDTA Buffer (pH 9.0), CD4 and CD8 in 1 mM EDTA Buffer (pH 8.0), and TNF-α in 10 mM Citrate Buffer (pH 6.0) as previous methods. Primary anti-antibodies used in the invention were as following table.
(§2) The water bath with a staining dish, containing a buffer, was preheated until the temperature reached 95-100. The staining dish was placed at room temperature and the slides were cooled for 20 minutes. After epitope retrivals, sections were immunostained as following steps
(§3) First, the sections were incubated with methanol and 0.3% H2O2 for 30 min to block endogenous peroxidase activity at room temperature, and then rinsed three times in 0.01M phosphate buffered saline (PBS; pH 7.2) for 3 times. Then, the sections were incubated with the normal horse serum blocking solution (Vector Lab. Inc., CA, USA., dilution 1:100) for 1 hr at room temperature in a humidity chamber, to block non-specific binding of immunoglobulin, and then rinsed three times in 0.01M PBS. The sections were incubated with four types of primary antisera for 12 hrs at 4 in a humidity chamber, and then rinsed three times in 0.01M PBS. The sections were incubated with universal biotinylated secondary antibody for 1 hr at room temperature in a humidity chamber, and then rinsed three times in 0.01M PBS. The sections were incubated with ABC reagents (Vectastain Elite ABC Kit, Vector Lab. Inc., CA, USA. Dilution 1:50) for 1 hr at room temperature in a humidity chamber, and then rinsed three times in 0.01M PBS. The sections were incubated in the peroxidase substrate kit (Vector Lab. Inc., CA) for 30 seconds at room temperature, and then rinsed three times in 0.01M PBS. The sections were counterstained with the Mayer's hematoxylin solution, and then rinsed in running tap water for 30 minutes. The sections were dehydrated through 95% ethanol for 2 min and 100% ethanol for […], and then rinsed in xylene for 2 hrs. After that, the sections were observed using a cover slip with permanent mounting medium under the light microscope (Zeiss, Germany).
(§4) Histomorphometry—Among 1000 splenic or thymic cells, the numbers (N) of immunoreactive cells (CD3+, CD4+, CD8+, and TNF-α+) were observed as N/1000 splenocytes or thymocytes using automated image analysis. In thymus, the counts were conducted in the both cortex and medulla separately.

[3] = system: thymic CD3+, CD4+, CD8+ and TNF-α+ cells; test: Immunohistochemistry of thymus (cortex and medulla) in CPA-treated mice; format: in vivo, ICR mice
Procedure: as §1, §2, §3, §4

[4] = system: bone marrow polychromatic erythrocytes; test: Bone marrow MNPCE and PCE/(PCE+NCE) in CPA-treated mice; settings: LPC 1, DW286 0.5, Mix 0.75 mg/kg
Procedure: (§5) In Intact control animals, equal volume of saline was only dosed instead of CPA with same methods.
In brief, bone marrow cells were collected from aforementioned femur in 3 ml of inactivated fetal bovine serum (GIBCO BRL, USA), centrifuged, and smeared on slide. Preparations were dried, and fixed by submerging in absolute methanol (for 10˜20 min). Fixed slides were stained as follow:
Slides were randomly coded and examined under×1000 magnification by two different experts. Small round or oval shaped bodies, size of which ranging about ⅕ to 1/20 of diameter of PCE, were counted as micronuclei. Attention was given to discriminate micronuclei from artifacts. Results were expressed as the number of MNPCEs in 1000 PCEs. Mean number of MNPCE±S.D. was calculated for each treatment group.
(§6) Appropriate doses of candidate materials were dissolved in 5% human serum albumin, and subcutaneously dosed at 10 ml/kg (of body weight), 4 times 12-hr intervals from 6 hrs after CLP or 24 hrs after last CPA-dosing, respectively. In the INTACT, CPA, or CPA-CLP control groups, an equal volume of 5% human serum albumin was dosed by the same procedure.

[5] = Body weight of CPA-treated mice (Example 9); s.c. 4 times 12-hr intervals from 24 hrs after last CPA-dosing; settings: LPC 1, DW286 0.5, Mix 0.75 mg/kg
Procedure: In the INTACT control group, an equal volume of physiological saline was dosed instead of CPA by the same method.
as §5
In CPA-CLP model, body weight and mortalities were measured once a day for 5 days with automatic electronic balances (Sartorius Co., Ltd., USA), once a day for 2 days in CPA-treated model. All animals were overnight fasted at CPA dosing, CLP or initial dosing to reduce differences from feeding. In addition, body weight gains were calculated as follows:
CPA-Treat Model: Body weight at sacrifice—at initial dosing (2 days)
To find suitable dosing regime of LPC and DW286AA combination during the development of new therapeutic agents against sepsis, evaluation was conducted by using CPA-CLP— and CPA-induced immunosuppressive mice. […] Then, mortalities, changes in thymus and spleen weights, changes in white blood cell (WBC) number, and changes in thymic and splenic CD3+, CD4+, CD8+, and TNF-α+ cell numbers, were evaluated together with changes in bone marrow polychromatic erythrocytes contain micronuclei (MNPCE) number.
as §6

[6] = LPC 1, DW286 0.5, Mix 0.75 mg/kg
[7] = spleen, CPA-treated mice, Mean ± S.D., n = 9
[8] = thymus cortex, CPA-treated mice, Mean ± S.D., n = 9
[9] = thymus medulla, CPA-treated mice, Mean ± S.D., n = 9

**Q.** Which results are given for CON=C1CN(c2nc3c(cc2F)c(=O)c(C(=O)O)cn3C2CC2)CC1(C)CN.Cl (stereo not shown) [DW286aa, 7-[3-(aminomethyl)-4-(methoxyimino)-3-methyltetrahydro-1H-1-pyrrolyl]-1-cyclopropyl-6-fluoro-4-oxo-1,4-dihydro[1,8]naphthyridine-3-carboxylic acid hydrochloric acid salt]?
**A.** Survival rate (CPA-CLP mice; 1 day after CLP): 100%; survival rates (survivors/total in brackets), Table 13 (CPA-CLP mice; 1 day after dosing): 100 (9/9); Survival rate (CPA-CLP mice; 2 days after CLP): 44.44%; survival rates (survivors/total in brackets), Table 13 (CPA-CLP mice; 2 days after dosing): 44 (4/9); Survival rate (CPA-CLP mice; 3 days after CLP): 33.33%; survival rates (survivors/total in brackets), Table 13 (CPA-CLP mice; 3 days after dosing): 33 (3/9); Survival rate (CPA-CLP mice; 4 days after CLP): 0%; survival rates (survivors/total in brackets), Table 13 (CPA-CLP mice; 4 days after dosing): 0 (0/9); Survival rate (CPA-CLP mice; 5 days after CLP): 0%; Survival rate (CPA-CLP mice; At CLP): 100%; survival rates (survivors/total in brackets), Table 13 (CPA-CLP mice; Dosing Day 0): 100 (9/9); Survival rate (CPA-CLP mice; Total): 100%; Spleen: Number of white pulps [1]: 6.11 ± 1.45 N/histological sections; Thymus: Incidences of thymic cortex atrophy (atrophic changes/total observed number of thymus) [1]: 9/9 (100%); incidences of decrease of lymphoid cells in the thymic cortex [1]: 100%; numbers of white pulps of spleen, change compared to CPA control [1]: −1.79%; numbers of splenic CD3+ cells, change compared to CPA control [2, 6]: −14.02%; numbers of splenic CD4+ cells, change compared to CPA control [2, 6]: −10.82%; numbers of splenic CD8+ cells, change compared to CPA control [2, 6]: −10.63%; splenic TNF-α+ cells, change compared to CPA control [2, 6]: −13.840%; CD3+ cells, Spleen (IHC-Histomorphometry) [2, 7]: 55.89 N/1000 splenocytes or thymocytes; CD4+ cells, Spleen (IHC-Histomorphometry) [2, 7]: 41.22 N/1000 splenocytes or thymocytes; CD8+ cells, Spleen (IHC-Histomorphometry) [2, 7]: 45.78 N/1000 splenocytes or thymocytes; TNF-α+ cells, Spleen (IHC-Histomorphometry) [2, 7]: 40.11 N/1000 splenocytes or thymocytes; numbers of thymic cortex CD3+ cells, change compared to CPA control [3, 6]: −9.16%; numbers of thymic cortex CD4+ cells, change compared to CPA control [3, 6]: 21.74%; numbers of thymic cortex CD8+ cells, change compared to CPA control [3, 6]: 33.33%; numbers of thymic medulla CD3+ cells, change compared to CPA control [3, 6]: −33.33%; numbers of thymic medulla CD4+ cells, change compared to CPA control [3, 6]: 27.27%; numbers of thymic medulla CD8+ cells, change compared to CPA control [3, 6]: −22.22%; thymic cortex TNF-α+ cells, change compared to CPA control [3, 6]: −13.040%; thymic medulla TNF-α+ cells, change compared to CPA control [3, 6]: 0.00%; CD3+ cells, Thymus: Cortex (IHC-Histomorphometry) [3, 8]: 165.33 N/1000 splenocytes or thymocytes; CD4+ cells, Thymus: Cortex (IHC-Histomorphometry) [3, 8]: 3.11 N/1000 splenocytes or thymocytes; CD8+ cells, Thymus: Cortex (IHC-Histomorphometry) [3, 8]: 4.00 N/1000 splenocytes or thymocytes; TNF-α+ cells, Thymus: Cortex (IHC-Histomorphometry) [3, 8]: 2.22 N/1000 splenocytes or thymocytes; CD3+ cells, Thymus: Medulla (IHC-Histomorphometry) [3, 9]: 0.22 N/1000 splenocytes or thymocytes; CD4+ cells, Thymus: Medulla (IHC-Histomorphometry) [3, 9]: 1.78 N/1000 splenocytes or thymocytes; CD8+ cells, Thymus: Medulla (IHC-Histomorphometry) [3, 9]: 1.56 N/1000 splenocytes or thymocytes; TNF-α+ cells, Thymus: Medulla (IHC-Histomorphometry) [3, 9]: 0.00 N/1000 splenocytes or thymocytes; MNPCE numbers, change compared to CPA control [4]: −10.85%; PCE/(PCE+NCE), change compared to CPA control [4]: −14.79%; NCE ([4]; among 500 erythrocytes): 379.67 ± 17.07; PCE ([4]; among 500 erythrocytes): 120.33 ± 17.07; PCE/(NCE + PCE) ([4]; among 500 erythrocytes): 0.24 ± 0.03; % MNPCE ([4]; among 1000 PCEs): 2.56 ± 0.57 %; Body weight ([5]; 1 day after second CPA-dosing): 37.46 ± 1.96 g; Body weight ([5]; 2 days after second CPA-dosing): 38.61 ± 1.95 g; Body weight ([5]; At Dosing (overnight fasted)): 33.02 ± 1.95 g; Body weight ([5]; At First CPA dosing (overnight fasted)): 36.84 ± 1.83 g; Body weight gains during 2 days after dosing [5]: 5.59 ± 1.03 g; body weight (gains) change compared to the CPA control group [5]: −1.37%
